Assay results taken from US8022056B2, “Compositions and methods for the treatment of cancer” (Tautatis, Inc, priority 2006, dated 2011).

Experiments:
[1] = target: GSK3; assay: Kinase inhibition under standard conditions, GSK3; type: biochemical
[2] = system: HT29 colon cancer cell line; assay: Long-term growth inhibition, crystal violet staining; type: cell-based, human; conditions: 10 nM
Experimental: For proliferation assays tumor cell suspensions (100 μl/well) were seeded into 96-well flat bottomed microtitration plates at a density of ca. 15 cells/microscopic field (magnification 320×). After 2-3 days the culture medium was removed by suction and replaced by fresh medium (200 μl/well) containing varying concentrations of the compound of the formula 1 or vehicle (0.5% DMSO). Compound 1 was added as […] concentrated feed solutions. On every plate 16 wells served as controls and 16 wells were used per concentration of 1. After various times of incubation the cells were fixed with glutardialdehyde and stored in a refrigerator. At the end of the assay all plates were processed simultaneously (staining with 0.02% aqueous crystal violet solution (100 μl/well). Excess dye was removed by rinsing the trays with water for 20 min. The stain bound by the cells was redissolved in 70% ethanol (180 μl/well) while shaking the microplates for about 3 hours. Absorbance (proportional to cell mass) was measured at 578 nm using a BIOTEK 309 Autoreader. The results (mean values±standard deviation) were plotted as growth curves.
The HT29 human colon cancer cell line (obtained from ATCC, Rockville, USA) was cultured as above. Treatment with the compound of the formula 1 and analysis of growth inhibition was performed analogous to Example 3.

[3] = system: NCI-H23 xenograft; assay: Mouse xenograft model NCI-H23; type: in vivo; conditions: Lung, Ras/p53; oral twice daily dosing
Experimental: (§1) The efficacy of the compound of the formula 1 was confirmed in mouse tumor xenograft models, employing the NMRI(nu/nu) strain of mice. For example, cells from the human tumor cell lines MDA-MB-231, U373, and HT29 were pre-incubated subcutaneously in several nude mice to select for the most robustly growing cell population. After having grown to a sufficient size after 2-3 weeks, a piece of about 2 mm^3 volume of the most suitable tumor was transplanted subcutaneously into the region of the thoracic mammary fat pads, an area ensuring a high degree of vascularization of the grafted tissue. […] During the course of the treatment, the weight of the animals and the size of the transplanted tumor was monitored three times a week. […] These doses are best determined separately for each individual mouse strain employed.
(§2) To establish a solid tumour 3×10^6 tumor cells suspended in 100 μl of serum free medium (RPMI) were inoculated subcutaneously into the region of the thoracic mammary fat pads of 5 Male NMRI(nu/nu) mice of 8-10 weeks of age. […] During the course of the treatment body weight changes and tumor growth were recorded three times a week. Growth curves were plotted together with standard deviations and the significance of differences was determined using an unpaired t-test in FIG. 11. […]

[4] = system: ACHN xenograft; assay: Mouse xenograft model ACHN; type: in vivo; conditions: Kidney, CDKN2A; oral twice daily dosing
Experimental: as §1, §2

[5] = target: T1, ABC-B1 (glycoprotein gp170) (Homo sapiens, UniProt P08183); assay: Competition with MDR-driven efflux of calcein-AM in Kb-V1 cells (FACS); type: cell-based
T1 construct: Kb-V1 cells expressing high levels of gp170; endogenous in cells; host or cells: Kb-V1 cells
T1 sequence (P08183 whole entry): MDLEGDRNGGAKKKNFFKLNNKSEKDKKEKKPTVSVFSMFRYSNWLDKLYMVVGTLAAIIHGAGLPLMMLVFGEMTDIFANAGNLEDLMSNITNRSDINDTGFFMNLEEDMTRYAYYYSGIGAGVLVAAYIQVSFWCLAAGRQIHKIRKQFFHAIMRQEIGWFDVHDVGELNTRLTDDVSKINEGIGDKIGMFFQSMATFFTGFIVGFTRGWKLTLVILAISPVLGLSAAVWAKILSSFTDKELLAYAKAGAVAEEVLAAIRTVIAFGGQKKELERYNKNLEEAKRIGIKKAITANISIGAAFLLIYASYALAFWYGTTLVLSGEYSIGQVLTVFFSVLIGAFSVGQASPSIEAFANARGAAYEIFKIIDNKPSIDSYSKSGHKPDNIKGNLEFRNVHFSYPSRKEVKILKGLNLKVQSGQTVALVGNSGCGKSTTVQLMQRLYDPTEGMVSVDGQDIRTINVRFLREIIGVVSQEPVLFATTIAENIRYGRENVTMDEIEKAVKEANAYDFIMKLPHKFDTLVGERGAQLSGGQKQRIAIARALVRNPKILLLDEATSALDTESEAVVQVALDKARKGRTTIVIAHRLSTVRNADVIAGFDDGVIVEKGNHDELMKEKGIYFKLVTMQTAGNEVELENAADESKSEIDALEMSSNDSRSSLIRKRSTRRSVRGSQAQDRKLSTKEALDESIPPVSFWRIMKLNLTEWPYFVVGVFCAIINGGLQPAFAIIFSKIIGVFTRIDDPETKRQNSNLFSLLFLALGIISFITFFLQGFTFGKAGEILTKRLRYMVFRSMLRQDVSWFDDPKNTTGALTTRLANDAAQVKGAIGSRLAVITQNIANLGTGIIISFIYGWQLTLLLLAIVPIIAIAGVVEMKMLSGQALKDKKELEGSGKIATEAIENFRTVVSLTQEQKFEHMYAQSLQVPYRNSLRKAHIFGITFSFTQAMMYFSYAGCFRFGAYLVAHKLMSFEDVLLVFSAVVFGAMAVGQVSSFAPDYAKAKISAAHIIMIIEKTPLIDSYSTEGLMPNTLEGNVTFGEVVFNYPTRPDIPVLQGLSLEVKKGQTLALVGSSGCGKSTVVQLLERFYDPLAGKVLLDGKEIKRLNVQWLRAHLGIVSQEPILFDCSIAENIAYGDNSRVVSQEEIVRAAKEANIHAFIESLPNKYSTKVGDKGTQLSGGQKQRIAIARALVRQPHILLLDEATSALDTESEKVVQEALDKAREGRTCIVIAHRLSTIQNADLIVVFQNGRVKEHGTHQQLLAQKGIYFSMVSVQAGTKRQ
Source text: (§3) FIG. 6 compares the recognition of compound 1 and of the compound 6 by two frequently involved multi-drug resistance proteins ABC-B1 (glycoprotein gp170) (A), and ABC-G2 (breast cancer resistance protein BCRP) (B). Measurements were based on competition with the MDR-driven efflux of calcein-AM in Kb-V1 cells expressing high levels of gp170, or competition with the efflux of mitoxandrone in MCF-7 cells by the respective compounds within their effective concentration range. Uptake of fluorescent reporter compounds by competition with 1 or 6 was assessed by FACS as described in Mueller et al., Cancer Chemother. Pharmacol. 59, 157-164 (2007).

[6] = target: T2, ABC-G2 (breast cancer resistance protein BCRP) (Homo sapiens, UniProt Q9UNQ0); assay: Competition with efflux of mitoxandrone in MCF-7 cells (FACS); type: cell-based
T2 construct: endogenous in cells; host or cells: MCF-7 cells
T2 sequence (Q9UNQ0 whole entry): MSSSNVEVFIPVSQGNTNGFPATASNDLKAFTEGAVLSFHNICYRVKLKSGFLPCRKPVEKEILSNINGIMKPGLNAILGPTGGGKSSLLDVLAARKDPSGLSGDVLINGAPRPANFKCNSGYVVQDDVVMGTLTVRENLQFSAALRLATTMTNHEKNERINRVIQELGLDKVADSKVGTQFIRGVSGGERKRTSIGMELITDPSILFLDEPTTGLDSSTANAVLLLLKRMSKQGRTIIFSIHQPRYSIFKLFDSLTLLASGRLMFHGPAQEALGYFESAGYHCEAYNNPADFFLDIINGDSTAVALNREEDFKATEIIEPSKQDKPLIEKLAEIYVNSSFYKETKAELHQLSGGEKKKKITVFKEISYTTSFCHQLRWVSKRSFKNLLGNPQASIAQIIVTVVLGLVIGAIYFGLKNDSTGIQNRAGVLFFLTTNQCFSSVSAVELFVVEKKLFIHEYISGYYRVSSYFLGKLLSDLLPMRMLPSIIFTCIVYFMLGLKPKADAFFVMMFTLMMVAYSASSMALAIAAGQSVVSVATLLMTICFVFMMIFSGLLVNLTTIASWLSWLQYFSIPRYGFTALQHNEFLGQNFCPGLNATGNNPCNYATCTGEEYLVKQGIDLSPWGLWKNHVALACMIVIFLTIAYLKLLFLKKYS
Source text: as §3

## CNC(=O)[C@@]1(N)C[C@H]2O[C@]1(C)n1c3ccccc3c3c4c(c5c6ccccc6n2c5c31)C(=O)NC4 [Compound 1]
[1]
  IC50: 1230 nM
[2]
  proliferation of HT29 cells: sufficient to block the proliferation
[3]
  Mean % Inhibition: 92%
  N tumors with no/neg. growth: 5 of 10
[4]
  Mean % Inhibition: 86%
  N tumors with no/neg. growth: 5 of 10
[5]
  separation of anti-proliferative potency range from uptake concentration for efflux transporter, versus compound 6: more clearly separated
[6]
  separation of anti-proliferative potency range from uptake concentration for efflux transporter, versus compound 6: more clearly separated
